How the values were obtained:
[1] = biological target: T1, CSF1R (h) (Homo sapiens, UniProt P07333); assay: Enzymatic activity test, CSF1R (h); format: biochemical; settings: 10 μM [γ-33P]-ATP, 40 minutes, room temperature
T1 construct: purchased
Description: Assay 3: Enzymatic Activity Test of the Compounds of the Present Invention
Test substances: the compounds of the present invention, wherein the structures and preparations thereof were as described above.
(1) Preparation of the Compound Stock Solution
The compound was dissolved in 100% DMSO to prepare a stock solution with a maximum concentration of 500 μM.
(2) Preparation of the Compound Working Solution
The compound stock solution was diluted to final concentrations of 500, 150, 50, 15, 5, 1.5, 0.5, 0.15 and 0.05 μM to become the compound working solutions (50×).
(3) Preparation of Different Enzyme Reaction Solutions
The enzymatic reaction was activated by using 10 mM magnesium acetate and 10 μM [γ-^33P]-ATP to form an Mg/ATP mixed solution.
In a 384-well plate, the compound working solution was added to final concentrations of 10000, 3000, 1000, 300, 100, 30, 10, 3, and 1 nM. Then different enzyme reaction solutions prepared according to the above conditions were added. The incubation was carried out for 40 minutes at room temperature. The test was terminated by the addition of a 0.5% phosphoric acid solution. 10 μL of the reaction solution was taken and dropped to the P30 filter paper. […] The grayscale analysis of the results was performed using Image J software and the IC50 values were calculated using GraphPad 5.0 software.

[2] = biological target: T2, H1299 cell pMer (Homo sapiens, UniProt Q12866); assay: Inhibitory activity on the cell pMer (Western Blot); format: cell-based; settings: H1299 cells, compound 0.35, 1.1, 3.3, 10 nM, Human MerMab 200 ng/mL
T2 construct: The H1299 cells were inoculated in a 6-well plate; endogenous in cells; host or cells: H1299
T2 sequence (Q12866 21-999): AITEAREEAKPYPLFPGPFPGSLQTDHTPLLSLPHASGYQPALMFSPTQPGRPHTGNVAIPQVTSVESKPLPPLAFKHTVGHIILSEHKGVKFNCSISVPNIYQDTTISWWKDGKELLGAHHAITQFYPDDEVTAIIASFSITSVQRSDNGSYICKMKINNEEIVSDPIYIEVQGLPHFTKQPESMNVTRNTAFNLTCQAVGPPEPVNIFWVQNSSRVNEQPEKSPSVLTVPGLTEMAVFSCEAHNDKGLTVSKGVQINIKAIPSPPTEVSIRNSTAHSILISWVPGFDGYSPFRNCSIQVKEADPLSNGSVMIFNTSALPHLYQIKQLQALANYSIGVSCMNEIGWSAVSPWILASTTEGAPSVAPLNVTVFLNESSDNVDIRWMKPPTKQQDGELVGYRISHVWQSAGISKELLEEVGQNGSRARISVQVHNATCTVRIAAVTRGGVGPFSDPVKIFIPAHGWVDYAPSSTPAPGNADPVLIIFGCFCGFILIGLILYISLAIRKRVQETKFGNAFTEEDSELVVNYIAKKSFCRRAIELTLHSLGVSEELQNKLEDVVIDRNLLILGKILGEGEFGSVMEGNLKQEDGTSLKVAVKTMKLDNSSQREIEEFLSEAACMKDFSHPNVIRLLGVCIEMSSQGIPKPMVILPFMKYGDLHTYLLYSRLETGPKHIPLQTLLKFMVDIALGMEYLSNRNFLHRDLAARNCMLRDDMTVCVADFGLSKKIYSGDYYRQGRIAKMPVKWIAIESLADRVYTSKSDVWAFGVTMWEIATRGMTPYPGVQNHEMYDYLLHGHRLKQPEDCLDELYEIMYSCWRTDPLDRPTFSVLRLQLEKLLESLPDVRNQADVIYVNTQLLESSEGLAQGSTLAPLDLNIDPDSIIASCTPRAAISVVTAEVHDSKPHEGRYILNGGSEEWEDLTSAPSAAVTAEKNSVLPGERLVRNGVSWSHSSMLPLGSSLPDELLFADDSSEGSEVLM
Description: Assay 6: Test for Inhibitory Activities of the Compounds of the Present Invention on the Cell pMer
H1299 is a non-small cell lung cancer cell.
Test substances: the compounds of the present invention, wherein the structures thereof were as described above.
Test equipment: protein electrophoresis apparatus (manufactured by Bio Rad), transfer unit (manufactured by Bio Rad), exposure unit (manufactured by Tanon), CO2 cell incubator (manufactured by Thermo).
The H1299 cells were inoculated in a 6-well plate (containing 10% FBS 1640 medium, 5×10^5 cells per well), and adherent cells were cultivated at 37° C. in a 5% CO2 condition for 18 hours. The cells were starved overnight. Different concentrations of compounds were added. The final compound concentrations were 0.35, 1.1, 3.3 and 10 nM, and the final DMSO content was 1‰. The negative control wells contained the medium containing 1‰ DMSO. After incubating at 37° C. in a 5% CO2 condition for 60 minutes, Human MerMab (R&D, final concentration 200 ng/mL) was added to each well. After further incubating for 60 minutes, the cell total protein was extracted for Western Blot and the IC50 values were calculated using GraphPad 5.0 software. The inhibitory activity of the compound on the cell pMer was examined.

T1 sequence (P07333 20-972): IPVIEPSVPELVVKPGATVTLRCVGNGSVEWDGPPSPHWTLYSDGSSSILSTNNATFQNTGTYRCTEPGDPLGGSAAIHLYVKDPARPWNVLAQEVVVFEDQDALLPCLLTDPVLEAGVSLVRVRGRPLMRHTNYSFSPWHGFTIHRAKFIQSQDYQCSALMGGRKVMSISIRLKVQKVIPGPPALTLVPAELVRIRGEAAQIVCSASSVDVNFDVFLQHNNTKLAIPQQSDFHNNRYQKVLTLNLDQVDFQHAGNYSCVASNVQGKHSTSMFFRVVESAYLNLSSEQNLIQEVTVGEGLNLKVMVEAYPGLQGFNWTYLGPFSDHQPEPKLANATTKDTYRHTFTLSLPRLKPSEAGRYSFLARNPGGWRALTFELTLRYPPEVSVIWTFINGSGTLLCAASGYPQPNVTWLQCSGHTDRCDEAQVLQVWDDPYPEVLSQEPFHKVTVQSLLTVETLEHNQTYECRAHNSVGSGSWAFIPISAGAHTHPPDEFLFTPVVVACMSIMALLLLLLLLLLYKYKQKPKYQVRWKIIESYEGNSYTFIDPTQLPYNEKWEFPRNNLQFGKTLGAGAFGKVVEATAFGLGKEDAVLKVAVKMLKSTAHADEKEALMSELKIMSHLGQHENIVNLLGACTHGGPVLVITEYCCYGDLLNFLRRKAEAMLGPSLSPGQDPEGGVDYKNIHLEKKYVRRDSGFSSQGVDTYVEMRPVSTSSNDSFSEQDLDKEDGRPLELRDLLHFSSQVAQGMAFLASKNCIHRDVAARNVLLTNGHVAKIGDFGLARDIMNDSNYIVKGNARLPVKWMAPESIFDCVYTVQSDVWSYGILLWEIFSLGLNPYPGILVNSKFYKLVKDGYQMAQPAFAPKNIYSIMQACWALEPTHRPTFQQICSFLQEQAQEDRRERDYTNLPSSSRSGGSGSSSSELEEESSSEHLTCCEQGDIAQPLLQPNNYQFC

IC50 [1]: 34 nM
IC50 [2]: 1.1 nM
SMILES: COc1cc2nccc(Oc3cnc(NC(=O)c4cn(C(C)C)nc(-c5ccc(F)cc5)c4=O)nc3)c2cc1OC [Compound 39, N-(5-((6,7-dimethoxyquinolin-4-yl)oxy)pyrimidine-2-yl)-6-(4-fluorophenyl)-2-isopropyl-5-oxo-2,5-dihydropyridazine-4-carboxamide]
